# ChEMBL document CHEMBL1201862, “PubChem BioAssay data set” (2004)
# The source made the active and inactive calls.
# Assays:
# [1] = Luminescence Cell-Based Dose Response HTS to Identify Inhibitors of 5'UTR Stem-Loop Driven Prion Protein mRNA Translation in H4 Neuroglioblastoma Cells. [Related pubchem assays: 1827 (Project Summary), 1813 (Primary HTS)]; assay type: functional
# [2] = inhibitors of intracellular T. cruzi replication, confirmation, NIH3T3 host cells, beta-gal luminescence (AID 2044); assay type: functional, cell-based;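 note: intracellular parasites grown in NIH/3T3 mouse fibroblasts as host cells; luminescent beta-galactosidase reporter signal from transgenic T. cruzi replicating inside host cells; inhibitors lower the luminescence signal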
# [3] = target: T1, Serine/threonine-protein phosphatase (Candida dubliniensis (strain CD36 / CBS 7987 / NCPF 3949 / NRRLY-17841) (Yeast), UniProt B9W6M3); assay: calcineurin pathway inhibitors in yeast reporter, dose response, S. cerevisiae, CDRE-lacZ, luminescence, secondary (AID 2388); assay type: functional, cell-based;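 note: yeast reporter cells carrying a calcineurin-responsive lacZ construct stimulated with calcium chloride; luminescent beta-galactosidase reporter signal in whole cells rather than isolated phosphatase activity; potency for inhibition where a drop in reporter signal means calcineurin blockade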
# T1 sequence (B9W6M3 whole entry): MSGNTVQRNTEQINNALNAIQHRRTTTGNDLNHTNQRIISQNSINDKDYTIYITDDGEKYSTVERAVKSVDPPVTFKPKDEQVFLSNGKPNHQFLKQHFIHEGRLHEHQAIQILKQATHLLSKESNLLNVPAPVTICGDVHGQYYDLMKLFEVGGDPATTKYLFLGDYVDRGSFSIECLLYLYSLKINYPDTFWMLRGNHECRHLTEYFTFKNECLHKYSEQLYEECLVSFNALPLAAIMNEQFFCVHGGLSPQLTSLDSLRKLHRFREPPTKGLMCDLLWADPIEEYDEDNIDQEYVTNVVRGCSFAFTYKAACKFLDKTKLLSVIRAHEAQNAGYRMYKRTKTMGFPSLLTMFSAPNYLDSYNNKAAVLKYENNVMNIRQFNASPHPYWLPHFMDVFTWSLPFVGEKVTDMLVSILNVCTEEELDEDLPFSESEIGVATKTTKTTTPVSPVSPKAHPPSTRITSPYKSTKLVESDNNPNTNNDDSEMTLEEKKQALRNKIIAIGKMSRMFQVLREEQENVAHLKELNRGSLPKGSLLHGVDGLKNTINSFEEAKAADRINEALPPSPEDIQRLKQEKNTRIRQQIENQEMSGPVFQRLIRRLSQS
# Streptococcus = assay: Group A Streptococcus viability loss, dose response, counter-screen for streptokinase expression inhibitor project, luminescence, BacTiterGlo (AID 1915); assay type: functional, organism-based;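 note: potency for reduction of bacterial viability or growth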
# Exodeoxyribonuclease V = Exodeoxyribonuclease V (Escherichia coli (strain K12), UniProt P04993+P07648+P08394); assay: E. coli RecBCD inhibitors, dose response, counter-screen for AddAB inhibitor project, absorbance, V66 E. coli, mutant T4 phage (AID 492957); assay type: functional, cell-based, Escherichia coli str. K-12 substr. MG1655
# [4] = target: Tyrosine-protein kinase JAK2 (Homo sapiens, UniProt O60674); assay type: functional;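 note: JAK2 tested as one member of a kinase panel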
# [5] = target: Serine/threonine-protein kinase TBK1 (Homo sapiens, UniProt Q9UHD2); assay: Navigating the Kinome. Panel member name: TBK1; assay type: functional
# Chain of Serine/threonine-protein kinase TBK1 (Q9UHD2 whole entry): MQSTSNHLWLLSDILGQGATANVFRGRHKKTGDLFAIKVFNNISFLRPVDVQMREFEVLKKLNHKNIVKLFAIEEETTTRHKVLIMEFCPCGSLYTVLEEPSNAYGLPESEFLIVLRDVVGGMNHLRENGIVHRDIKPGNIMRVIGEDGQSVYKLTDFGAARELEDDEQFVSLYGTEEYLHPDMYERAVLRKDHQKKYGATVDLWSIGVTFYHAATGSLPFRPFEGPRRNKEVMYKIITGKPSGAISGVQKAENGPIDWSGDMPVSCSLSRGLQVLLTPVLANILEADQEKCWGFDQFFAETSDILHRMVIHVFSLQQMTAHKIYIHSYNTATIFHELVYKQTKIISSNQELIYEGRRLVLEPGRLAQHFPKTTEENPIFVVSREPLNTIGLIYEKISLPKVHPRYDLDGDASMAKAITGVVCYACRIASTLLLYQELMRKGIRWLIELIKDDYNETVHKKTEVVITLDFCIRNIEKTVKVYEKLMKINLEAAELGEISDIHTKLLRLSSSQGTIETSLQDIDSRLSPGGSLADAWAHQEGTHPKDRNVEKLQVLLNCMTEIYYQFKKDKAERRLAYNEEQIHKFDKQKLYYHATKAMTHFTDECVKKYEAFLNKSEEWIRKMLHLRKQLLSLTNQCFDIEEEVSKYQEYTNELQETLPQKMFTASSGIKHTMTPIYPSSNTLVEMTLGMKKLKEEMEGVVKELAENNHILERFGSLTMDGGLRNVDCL
# [6] = target: ALK tyrosine kinase receptor (Homo sapiens, UniProt Q9UM73); assay type: functional;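 note: ALK tested as one member of a kinase panel screen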
# [7] = target: Serine/threonine-protein kinase D3 (Homo sapiens, UniProt O94806); assay type: functional;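 note: determined within a kinase panel screen, with PRKCN as the panel member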
# Chain of Serine/threonine-protein kinase D3 (O94806 whole entry): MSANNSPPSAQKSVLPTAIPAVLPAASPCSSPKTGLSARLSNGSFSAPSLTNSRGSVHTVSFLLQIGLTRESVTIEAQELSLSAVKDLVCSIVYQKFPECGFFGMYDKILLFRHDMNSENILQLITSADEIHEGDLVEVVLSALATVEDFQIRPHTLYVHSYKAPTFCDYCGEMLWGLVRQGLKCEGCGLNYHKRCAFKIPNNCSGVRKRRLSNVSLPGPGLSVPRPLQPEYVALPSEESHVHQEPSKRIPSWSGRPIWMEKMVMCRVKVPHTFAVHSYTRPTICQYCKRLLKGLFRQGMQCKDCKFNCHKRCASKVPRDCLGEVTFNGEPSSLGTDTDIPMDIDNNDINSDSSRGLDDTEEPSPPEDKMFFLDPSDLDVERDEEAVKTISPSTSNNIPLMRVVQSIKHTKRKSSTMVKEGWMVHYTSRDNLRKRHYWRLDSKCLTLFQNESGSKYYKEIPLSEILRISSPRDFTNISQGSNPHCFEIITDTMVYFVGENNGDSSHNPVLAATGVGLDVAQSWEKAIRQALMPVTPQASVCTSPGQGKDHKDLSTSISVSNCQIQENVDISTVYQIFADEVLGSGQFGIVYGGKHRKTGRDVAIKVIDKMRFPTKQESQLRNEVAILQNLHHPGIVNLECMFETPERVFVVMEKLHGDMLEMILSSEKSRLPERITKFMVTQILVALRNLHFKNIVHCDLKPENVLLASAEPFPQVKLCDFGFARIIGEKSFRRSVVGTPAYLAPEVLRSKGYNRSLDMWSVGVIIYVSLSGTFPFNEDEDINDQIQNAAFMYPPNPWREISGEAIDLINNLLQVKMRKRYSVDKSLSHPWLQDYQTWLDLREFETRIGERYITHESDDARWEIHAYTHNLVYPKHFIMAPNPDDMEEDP
# [8] = target: Mitogen-activated protein kinase 8 (Homo sapiens, UniProt P45983); assay type: functional;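 note: value comes from one member of a kinome-wide kinase profiling panel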
# Aurora kinase A = Aurora kinase A (Homo sapiens, UniProt O14965); assay type: functional;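 note: value from the Navigating the Kinome kinase panel profiling, panel entry STK6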
# Chain of Aurora kinase A (O14965 whole entry): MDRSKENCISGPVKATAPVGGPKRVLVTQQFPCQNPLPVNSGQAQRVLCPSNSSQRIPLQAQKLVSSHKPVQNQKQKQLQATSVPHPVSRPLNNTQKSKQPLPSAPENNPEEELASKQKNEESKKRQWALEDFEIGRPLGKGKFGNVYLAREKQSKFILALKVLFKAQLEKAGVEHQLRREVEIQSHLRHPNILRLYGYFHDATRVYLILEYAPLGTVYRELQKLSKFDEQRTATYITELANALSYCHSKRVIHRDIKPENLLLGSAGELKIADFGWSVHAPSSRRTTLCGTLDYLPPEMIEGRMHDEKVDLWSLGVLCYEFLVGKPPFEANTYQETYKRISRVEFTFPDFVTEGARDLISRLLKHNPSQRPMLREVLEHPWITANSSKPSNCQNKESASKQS
# [9] = target: Serine/threonine-protein kinase PAK 4 (Homo sapiens, UniProt O96013); assay type: functional;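 note: value obtained within a kinome profiling panel in which PAK4 was one of the panel members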
# [10] = target: High affinity nerve growth factor receptor (Homo sapiens, UniProt P04629); assay type: functional;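 note: NTRK1 tested as one member of a kinome-wide profiling panel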
# Activated CDC42 kinase 1 = Activated CDC42 kinase 1 (Homo sapiens, UniProt Q07912); assay: Navigating the Kinome. Panel member name: ACK1; assay type: functional
# [11] = target: Platelet-derived growth factor receptor beta (Homo sapiens, UniProt P09619); assay type: functional;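 note: value comes from a kinome panel, with PDGFRB tested as one panel member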
# Chain of Platelet-derived growth factor receptor beta (P09619 whole entry): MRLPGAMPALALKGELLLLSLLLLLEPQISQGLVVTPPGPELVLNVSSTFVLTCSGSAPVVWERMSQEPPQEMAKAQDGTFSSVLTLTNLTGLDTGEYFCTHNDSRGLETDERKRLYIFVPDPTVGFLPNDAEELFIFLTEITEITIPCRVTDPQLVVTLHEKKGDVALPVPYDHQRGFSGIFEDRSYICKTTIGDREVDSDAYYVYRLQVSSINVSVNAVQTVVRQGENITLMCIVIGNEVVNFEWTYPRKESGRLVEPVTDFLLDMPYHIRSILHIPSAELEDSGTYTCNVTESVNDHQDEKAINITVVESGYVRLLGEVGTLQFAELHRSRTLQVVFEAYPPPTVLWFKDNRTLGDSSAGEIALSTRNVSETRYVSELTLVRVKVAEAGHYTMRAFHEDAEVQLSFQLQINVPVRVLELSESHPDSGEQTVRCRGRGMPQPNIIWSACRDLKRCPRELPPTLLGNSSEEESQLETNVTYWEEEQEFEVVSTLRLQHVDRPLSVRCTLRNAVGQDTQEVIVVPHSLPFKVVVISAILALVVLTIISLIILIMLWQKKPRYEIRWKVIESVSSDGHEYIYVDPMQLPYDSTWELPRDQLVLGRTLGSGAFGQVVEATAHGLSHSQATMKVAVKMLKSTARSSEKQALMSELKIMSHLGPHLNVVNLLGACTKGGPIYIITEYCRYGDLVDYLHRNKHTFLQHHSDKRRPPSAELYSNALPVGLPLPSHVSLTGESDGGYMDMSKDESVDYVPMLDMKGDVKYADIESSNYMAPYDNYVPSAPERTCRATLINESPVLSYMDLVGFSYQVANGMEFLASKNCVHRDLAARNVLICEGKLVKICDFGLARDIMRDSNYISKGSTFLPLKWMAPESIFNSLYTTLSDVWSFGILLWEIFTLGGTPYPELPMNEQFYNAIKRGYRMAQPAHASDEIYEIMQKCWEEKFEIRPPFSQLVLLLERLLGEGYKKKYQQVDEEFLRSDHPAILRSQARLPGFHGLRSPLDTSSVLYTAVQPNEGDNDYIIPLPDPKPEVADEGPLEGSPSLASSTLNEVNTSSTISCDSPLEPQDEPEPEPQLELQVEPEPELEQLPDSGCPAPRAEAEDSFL
# [12] = target: cAMP-dependent protein kinase catalytic subunit PRKX (Homo sapiens, UniProt P51817); assay type: functional
# [13] = target: Leucine-rich repeat serine/threonine-protein kinase 2 (Homo sapiens, UniProt Q5S007); assay type: functional;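 note: value from a broad kinome-wide panel profiling study in which LRRK2 was one of the kinases tested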
# [14] = target: Rho-associated protein kinase 1 (Homo sapiens, UniProt Q13464); assay type: functional;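 note: measured within a broad kinome-wide panel profiling many kinases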
# [15] = target: Tyrosine-protein kinase Fyn (Homo sapiens, UniProt P06241); assay type: functional
# [16] = target: Vascular endothelial growth factor receptor 1 (Homo sapiens, UniProt P17948); assay type: functional;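 note: measured within a kinome-wide profiling panel, FLT1 as the panel member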
# Chain of Vascular endothelial growth factor receptor 1 (P17948 whole entry): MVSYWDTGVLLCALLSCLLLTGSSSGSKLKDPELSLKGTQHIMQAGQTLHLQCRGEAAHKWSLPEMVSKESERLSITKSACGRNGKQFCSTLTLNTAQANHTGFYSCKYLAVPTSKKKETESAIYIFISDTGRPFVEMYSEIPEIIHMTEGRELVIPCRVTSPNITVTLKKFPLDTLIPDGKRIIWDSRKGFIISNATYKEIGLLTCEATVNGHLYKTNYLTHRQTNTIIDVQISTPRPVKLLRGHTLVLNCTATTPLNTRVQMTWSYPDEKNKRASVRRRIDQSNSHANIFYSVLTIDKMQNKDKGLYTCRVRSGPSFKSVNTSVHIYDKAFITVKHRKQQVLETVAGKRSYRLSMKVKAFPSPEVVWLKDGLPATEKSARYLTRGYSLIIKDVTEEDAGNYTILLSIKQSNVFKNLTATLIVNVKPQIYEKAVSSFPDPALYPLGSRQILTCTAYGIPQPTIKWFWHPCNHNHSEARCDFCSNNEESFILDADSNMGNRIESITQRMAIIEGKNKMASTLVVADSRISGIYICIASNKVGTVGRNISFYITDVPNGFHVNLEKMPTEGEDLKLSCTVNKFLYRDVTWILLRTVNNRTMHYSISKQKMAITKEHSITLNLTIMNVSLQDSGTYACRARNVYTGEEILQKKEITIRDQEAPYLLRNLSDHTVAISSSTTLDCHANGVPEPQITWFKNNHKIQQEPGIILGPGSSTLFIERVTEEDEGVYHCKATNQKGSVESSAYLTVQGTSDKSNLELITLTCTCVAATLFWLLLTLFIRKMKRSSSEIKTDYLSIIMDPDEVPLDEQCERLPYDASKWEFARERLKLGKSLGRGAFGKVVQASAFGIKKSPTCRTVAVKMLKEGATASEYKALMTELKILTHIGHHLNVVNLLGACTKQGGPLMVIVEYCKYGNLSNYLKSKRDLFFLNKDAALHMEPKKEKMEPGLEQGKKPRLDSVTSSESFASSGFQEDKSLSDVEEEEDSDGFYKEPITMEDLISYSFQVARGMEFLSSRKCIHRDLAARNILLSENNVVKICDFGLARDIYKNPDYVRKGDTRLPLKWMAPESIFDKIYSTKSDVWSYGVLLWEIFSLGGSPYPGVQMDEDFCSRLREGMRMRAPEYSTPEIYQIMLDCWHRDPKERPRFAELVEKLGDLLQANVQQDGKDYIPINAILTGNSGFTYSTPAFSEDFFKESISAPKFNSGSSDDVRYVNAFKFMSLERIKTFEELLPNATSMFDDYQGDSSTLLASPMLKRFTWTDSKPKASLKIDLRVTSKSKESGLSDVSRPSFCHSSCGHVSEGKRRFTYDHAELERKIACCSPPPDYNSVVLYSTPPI
# [17] = target: BDNF/NT-3 growth factors receptor (Homo sapiens, UniProt Q16620); assay type: functional;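 note: NTRK2 measured as one member of a broad kinome-wide kinase profiling panel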
# [18] = target: Dual specificity protein kinase CLK4 (Homo sapiens, UniProt Q9HAZ1); assay type: functional
# [19] = target: Dual specificity tyrosine-phosphorylation-regulated kinase 1A (Homo sapiens, UniProt Q13627); assay type: functional;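 note: measured against DYRK1A as one member of a broad kinome profiling panel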
# [20] = target: Calcium/calmodulin-dependent protein kinase type II subunit alpha (Homo sapiens, UniProt Q9UQM7); assay: Navigating the Kinome. Panel member name: CAMK2A; assay type: functional
# Chain of Calcium/calmodulin-dependent protein kinase type II subunit alpha (Q9UQM7 whole entry): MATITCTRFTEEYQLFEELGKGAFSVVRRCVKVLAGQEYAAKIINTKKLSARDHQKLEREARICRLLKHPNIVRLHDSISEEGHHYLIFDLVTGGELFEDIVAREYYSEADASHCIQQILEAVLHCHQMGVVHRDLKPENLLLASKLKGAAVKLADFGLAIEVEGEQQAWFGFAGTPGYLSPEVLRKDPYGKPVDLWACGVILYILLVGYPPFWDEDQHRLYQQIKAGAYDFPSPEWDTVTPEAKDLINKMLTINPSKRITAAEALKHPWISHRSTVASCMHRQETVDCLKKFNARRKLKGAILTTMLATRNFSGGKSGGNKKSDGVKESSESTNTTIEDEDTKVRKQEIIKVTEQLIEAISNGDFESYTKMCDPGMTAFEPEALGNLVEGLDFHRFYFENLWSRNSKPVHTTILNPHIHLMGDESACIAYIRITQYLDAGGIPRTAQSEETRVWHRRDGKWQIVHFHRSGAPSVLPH
# [21] = target: Leukocyte tyrosine kinase receptor (Homo sapiens, UniProt P29376); assay: Navigating the Kinome. Panel member name: LTK; assay type: functional
# Estrogen receptor beta = Estrogen receptor beta (Homo sapiens, UniProt Q92731); assay: ERβ–SRC-3 coactivator interaction inhibitors, confirmation, orthogonal assay, biochemical, ELISA, streptavidin-HRP readout (AID 1060)
# [22] = target: T2, Oxysterols receptor LXR-beta (Homo sapiens, UniProt P55055); assay type: functional, cell-based;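 note: Cell-based luminescence dose-response assay of agonist activity at LXR, run as a confirmatory counterscreen to a daf-12 agonist screen; HEK293 cells with Gal4-LXR fusion and GAL4-driven luciferase reporter; agonist potency from rising luciferase signal of a Gal4-LXR reporter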
# T2 sequence (P55055 whole entry): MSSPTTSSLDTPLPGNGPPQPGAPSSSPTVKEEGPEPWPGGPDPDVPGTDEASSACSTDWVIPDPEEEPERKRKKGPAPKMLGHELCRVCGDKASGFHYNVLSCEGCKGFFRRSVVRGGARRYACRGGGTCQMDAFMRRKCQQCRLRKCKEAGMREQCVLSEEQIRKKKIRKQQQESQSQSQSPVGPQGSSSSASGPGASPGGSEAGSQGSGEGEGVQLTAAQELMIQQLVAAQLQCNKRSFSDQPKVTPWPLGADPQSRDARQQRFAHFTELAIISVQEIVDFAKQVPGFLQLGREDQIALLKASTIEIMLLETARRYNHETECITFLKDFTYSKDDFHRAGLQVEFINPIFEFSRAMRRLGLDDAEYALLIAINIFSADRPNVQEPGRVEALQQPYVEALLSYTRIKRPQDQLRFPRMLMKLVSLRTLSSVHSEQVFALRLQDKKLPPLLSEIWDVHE
smiles,measurement,setting,value
CN1CCN(C(c2ccc(C(F)(F)F)cc2)c2cc(Cl)c3cccnc3c2O)CC1 (configuration not stated),EC50,[1],9.3 µM (active)
same,EC50,[2],1.32 µM (active)
same,EC50,[3],> 180 µM (inactive)
same,EC50,Streptococcus,6.51 µM (active)
same,IC50,Exodeoxyribonuclease V,> 119 µM (inactive)
O=C(NC(CCO)c1ccccc1)c1ccc(-c2ccncc2)cc1 (configuration not stated),Ki,[4],> 2.51 µM (inactive)
same,Ki,[5],> 3.16 µM (inactive)
same,Ki,[6],> 6.31 µM (inactive)
same,Ki,[7],> 3.98 µM (inactive)
same,Ki,[8],> 5.01 µM (inactive)
same,Ki,Aurora kinase A,> 1.58 µM (inactive)
same,Ki,[9],> 5.01 µM (inactive)
same,Ki,[10],> 3.16 µM (inactive)
same,Ki,Activated CDC42 kinase 1,> 3.98 µM (inactive)
same,Ki,[11],> 2 µM (inactive)
same,Ki,[12],0.316 µM (active)
same,Ki,[13],> 2.51 µM (inactive)
same,Ki,[14],0.00631 µM (active)
same,Ki,[15],> 6.31 µM (inactive)
same,Ki,[16],> 3.98 µM (inactive)
same,Ki,[17],> 3.98 µM (inactive)
same,Ki,[18],0.316 µM (active)
same,Ki,[19],> 2 µM (inactive)
same,Ki,[20],> 7.94 µM (inactive)
same,Ki,[21],> 2.51 µM (inactive)
NC(=O)c1c(NC(=O)c2cc3ccccc3o2)sc2c1CCC2,IC50,Estrogen receptor beta,0.0552 µM (not active)
same,EC50,[22],> 67.5 µM (inactive)
